What was measured:
[1] = MTT cytotoxicity assay on normal cell line LLC-Mk2; format: cell-based; settings: rhesus monkey, LLC-Mk2 kidney epithelial normal cells, mean and standard error
Protocol: (§1) Afterward, the determination of the tested sample concentrations that were sufficient to kill 50 percent of the cell population (IC50) was done by using the cytotoxicity results in plotting a dose-response curve.
(§2) In addition, cytotoxic activities were reported as the average IC50 from three separate tests.
The cytotoxicity of the investigated substances was assessed and determined by MTT assay, and the detailed cytotoxicity assay is included in the Supplementary File S1 [57, 58]. […]
(§3) The tested human breast cancer (MCF -7) cell lines and normal cell line LLC - Mk2 were obtained from the American Type Culture Collection (ATCC, Rockville, MD). The cells were grown on RPMI -1640 medium supplemented with 10% inactivated fetal calf serum and 50µg/mL gentamycin (Lonza, Belgium). The cells were maintained at 37 °C in a humidified atmosphere with 5% CO 2 and were subcultured two to three times a week during the period of experiment .
(§4) For antitumor assays, the tumor cell lines were suspended in medium at cell density of 5x10^4 cells/well in Corning® 96-well tissue culture plates and then incubated for 24 hours. The tested compounds were then added into 96-well plates (six replicates) to achieve eight concentrations for each compound. Six vehicle controls with media or 0.5 % DMSO were run for each 96 well plate as a control. After incubating for 24 h, the numbers of viable cells were determined by the MTT assay. Briefly, the media was removed from the 96-well plate and replaced with 100 µl of fresh culture RPMI 1640 medium without phenol red then 10
(§5) (1 picture or pasted object on this page, not shown here) […]
(§6) µL of the 12 mM MTT stock solution {5 mg of 3-(4,5-dimethylthiazol-2-yl)-2,5-diphenyltetrazolium bromide purchased from Sigma-Aldrich (St. Louis, MO) in 1 mL of Phosphate buffered saline} to each well including the untreated controls. The 96 well plates were then incubated at 37°C and 5% CO 2 for 4 hours.
An 85 µl aliquot of the media was removed from the wells, and 50 µL of DMSO was added to each well and mixed thoroughly with the pipette and incubated at 37 °C for 10 min. Then, the optical density was measured at 590 nm with the microplate reader (SunRise, TECAN, Inc, USA) to dete rmine the number of viable cells and the percentage of viability was calculated as [(ODt/ODc)]x100% where ODt is the mean optical density of wells treated with the tested sample and ODc is the mean optical density of untreated cells. The relation between surviving cells and drug concentration is plotted to get the survival curve of each tumor cell line after treatment with the specified compound. The 50% inhibitory concentration (IC 50), the concentration required to cause toxic effects in 50% of intact cells, was estimated from graphic plots of the dose response curve for each conc. using GraphPad Prism software (San Diego, CA. USA)[ 2]. […]

[2] = system: human breast cancer (MCF-7) cell line; assay: MTT cytotoxicity assay on MCF-7; format: cell-based; settings: MCF7, 24 h incubation, mean and standard error of three tests
Protocol: as §1, §2
The cytotoxicity of the investigated substances was assessed and determined by MTT assay, and the detailed cytotoxicity assay is included in the Supplementary File S1 [57, 58].
1H-NMR spectra of compound 12c-1
as §3, §4, §5, §6
An 85 µl aliquot of the media was removed from the wells, and 50 µL of DMSO was added to each well and mixed thoroughly with the pipette and incubated at 37 °C for 10 min. Then, the optical density was measured at 590 nm with the microplate reader (SunRise, TECAN, Inc, USA) to dete rmine the number of viable cells and the percentage of viability was calculated as [(ODt/ODc)]x100% where ODt is the mean optical density of wells treated with the tested sample and ODc is the mean optical density of untreated cells. The relation between surviving cells and drug concentration is plotted to get the survival curve of each tumor cell line after treatment with the specified compound. The 50% inhibitory concentration (IC 50), the concentration required to cause toxic effects in 50% of intact cells, was estimated from graphic plots of the dose response curve for each conc. using GraphPad Prism software (San Diego, CA. USA)[ 2].
1. Mosmann, T. Rapid colorimetric assay for cellular growth and survival: application to proliferation and cytotoxicity assays. J. Immunol. Methods 1983, 65, 55-63.

VEGFR-2 = system: VEGFR-2; design: method as in PMID 28942113, PMID 21078410, PMID 26916914, PMID 27367493, PMID 35807236; settings: in Figure 2; cited from earlier work

melting point | Structure (SMILES) | CC50 at 24 h [1] | IC50 [2] | VEGFR-2 inhibition (VEGFR-2)
177 to 179 °C | CC(=NNC(N)=S)c1cc2cc(N=Nc3ccccc3)ccc2oc1=O [Compound 3, 2-(1-(2-oxo-6-(phenyldiazenyl)-2H-chromen-3-yl)ethylidene)hydrazine-1-carbothioamide] | – | – | –
201 to 203 °C | C/C(=N\Nc1nc(C)c(/N=N/c2ccccc2)s1)c1cc2cc(/N=N/c3ccccc3)ccc2oc1=O [Compound 6a] | – | – | –
– | CC(=NNc1nc(C)c(N=Nc2ccc(C)cc2)s1)c1cc2cc(N=Nc3ccccc3)ccc2oc1=O [Compound 6b] | 152 ± 9.3 µM | 11.2 ± 0.8 µM | –
179 to 181 °C | COc1ccc(/N=N/c2sc(N/N=C(\C)c3cc4cc(/N=N/c5ccccc5)ccc4oc3=O)nc2C)cc1 [Compound 6c] | 141 ± 5.15 µM | 14.1 ± 0.63 µM | –
– | CC(=NNc1nc(C)c(N=Nc2ccc(Cl)cc2)s1)c1cc2cc(N=Nc3ccccc3)ccc2oc1=O [Compound 6d] | 132 ± 8.26 µM | 10.5 ± 0.71 µM | –
216 to 218 °C | CC(=NNc1nc(C)c(N=Nc2ccc(Cl)cc2Cl)s1)c1cc2cc(N=Nc3ccccc3)ccc2oc1=O [Compound 6e] | – | – | –
– | CC(=NNC1=NC(=O)C(=NNc2ccc(C)cc2)S1)c1cc2cc(N=Nc3ccccc3)ccc2oc1=O [Compound 10a] | 140 ± 10.3 µM | 28.6 ± 0.64 µM | –
190 to 192 °C | CC(=NNC1=NC(=O)C(=NNc2ccc(Cl)cc2)S1)c1cc2cc(N=Nc3ccccc3)ccc2oc1=O [Compound 10b] | – | – | –
– | CC(=NNC1=NC(=O)C(=NNc2ccc([N+](=O)[O-])cc2)S1)c1cc2cc(N=Nc3ccccc3)ccc2oc1=O [Compound 10c] | 163 ± 9.12 µM | 15.7 ± 0.67 µM | –
217 to 219 °C | CC(=NNc1nc(-c2ccccc2)cs1)c1cc2cc(N=Nc3ccccc3)ccc2oc1=O [Compound 12a] | – | – | –
205 to 207 °C | COc1ccc(-c2csc(NN=C(C)c3cc4cc(N=Nc5ccccc5)ccc4oc3=O)n2)cc1 [Compound 12b] | – | – | –
231 to 233 °C | C/C(=N\Nc1nc(-c2ccc([N+](=O)[O-])cc2)cs1)c1cc2cc(/N=N/c3ccccc3)ccc2oc1=O [Compound 12c] | – | – | –
– | C/C(=N\c1ccc(F)cc1)c1c(O)c2ccccc2oc1=O [III] | – | – | 94%
– | CO/C=N\C1=C(C#N)C(c2ccc(F)cc2)c2c(c3ccccc3oc2=O)C1 (stereo not drawn) [IV] | – | – | 94%
– | CNC(=O)c1cc(Oc2ccc(NC(=O)Nc3ccc(Cl)c(C(F)(F)F)c3)cc2)ccn1 [Sorafenib, reference compound] | 135 ± 4.08 µM | 5.1 ± 0.49 µM | –
– | O=c1oc2cc(O)ccc2c(Nc2ccc(OCCN3CCCCC3)cc2)c1-c1ccc(F)cc1 [X = NH] | – | – | 88.42%
– | O=c1oc2cc(O)ccc2c(Oc2ccc(OCCN3CCCCC3)cc2)c1-c1ccc(F)cc1 [X = O] | – | – | 82.92%

From PMC9861390, “Synthesis and Molecular Docking of Some Novel 3-Thiazolyl-Coumarins as Inhibitors of VEGFR-2 Kinase” (Molecules, 2023)
